Reference: ChEMBL document CHEMBL6087461, “Cell-Permeable Peptide Inhibitors of the p53-hDM2 Interaction via Foldamer Helix Mimicry and Bis-Thioether Stapling” (J Med Chem, 2025)
pIC50: −log10 of the molar value. Starred links: 1 amine or outer side, 2 acyl side, 3 side chain; linkers in the order of their positions; H or OH if unused. Positions of bridges follow the written chain, without caps; N, C: chain ends. Residues, ends and D or L forms follow the SMILES beside them. *: point of attachment. X9 = CC(C)[C@@H](CNC(N)=O)NC(=O)NC[C@H](CSCc1ccc(-c2ccc(C[*:1])cc2)cc1)NC(=O)NC[C@H](C)N[*:2]; X12 = CC(C)[C@@H](CNC(N)=O)NC(=O)NC[C@H](C)NC(=O)NC[C@H](CSCc1ccc(C[*:1])cc1)N[*:2]; X1 = CC(C)[C@@H](CNC(N)=O)NC(=O)NC[C@H](C)NC(=O)NC[C@H](CSCCCCCC[*:1])N[*:2]; X13 = CC(C)[C@@H](CNC(N)=O)NC(=O)NC[C@H](C)NC(=O)NC[C@H](CSCCCCC[*:1])N[*:2]; X6 = CC(C)[C@@H](CNC(N)=O)NC(=O)NC[C@H](CSCCCCCC[*:1])NC(=O)NC[C@H](C)N[*:2]; X10 = CC(C)[C@@H](CNC(N)=O)NC(=O)NC[C@H](CSCCC[*:1])NC(=O)NC[C@H](C)N[*:2]; X8 = C[C@@H](CNC(N)=O)NC(=O)NC[C@H](C)NC(=O)NC[C@H](CSC/C=C/C[*:1])N[*:2]; X3 = CC(C)[C@@H](CNC(N)=O)NC(=O)NC[C@H](C)NC(=O)NC[C@H](C)N*; CH2CONHCH2CH2NHCOCH2 = O=C(C[*:1])NCCNC(=O)C[*:2]; pXylylene = c1cc(C[*:2])ccc1C[*:1]; X14 = C(=C\C[*:2])/C[*:1]; X11 = C(CCC[*:2])CC[*:1]; CH2CH2 = C(C[*:2])[*:1]; X7 = C(CC[*:1])CC[*:2]

Assays:
[1] = molecular target: Tumour suppressor protein p53/Mdm4 (Homo sapiens) (UniProt P04637+O15151); assay: PROTAC activity at human DMX/p53 extracted from Escherichia coli interaction at 100 nM by measuring inhibition of interaction by time-resolved fluorescence energy transfer (TRFRET) detection method relative to control; type: protein assay
[2] = molecular target: Tumour suppressor p53/oncoprotein Mdm2 (Homo sapiens) (UniProt P04637+Q00987); assay: PROTAC activity at human MDM2/p53 extracted from Escherichia coli interaction by measuring inhibition of interaction at 100 nM by time-resolved fluorescence energy transfer (TRFRET) detection method relative to control; type: protein assay
[3] = molecular target: Tumour suppressor protein p53/Mdm4 (Homo sapiens, UniProt O15151); assay: PROTAC activity at human DMX/p53 extracted from Escherichia coli interaction by measuring inhibition of interaction by time-resolved fluorescence energy transfer (TRFRET) detection method; type: protein assay
[4] = PROTAC activity at human DM2/p53 extracted from Escherichia coli interaction by measuring inhibition of interaction by time-resolved fluorescence energy transfer (TRFRET) detection method

Sequence of Tumour suppressor protein p53/Mdm4 (Homo sapiens) (O15151 whole entry, looked up): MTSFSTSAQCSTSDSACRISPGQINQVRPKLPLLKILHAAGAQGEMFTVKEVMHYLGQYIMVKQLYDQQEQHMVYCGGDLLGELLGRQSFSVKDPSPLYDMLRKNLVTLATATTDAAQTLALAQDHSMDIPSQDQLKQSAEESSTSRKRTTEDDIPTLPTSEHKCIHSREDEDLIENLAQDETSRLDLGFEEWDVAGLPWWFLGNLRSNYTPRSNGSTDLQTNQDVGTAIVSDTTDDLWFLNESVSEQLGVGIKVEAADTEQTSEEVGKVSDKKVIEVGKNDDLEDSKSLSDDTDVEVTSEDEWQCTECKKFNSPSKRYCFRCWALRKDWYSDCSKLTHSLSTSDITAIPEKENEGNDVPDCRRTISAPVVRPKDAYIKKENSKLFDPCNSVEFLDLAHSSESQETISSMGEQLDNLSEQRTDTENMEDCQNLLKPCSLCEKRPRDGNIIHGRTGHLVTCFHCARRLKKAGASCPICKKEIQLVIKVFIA
Sequence of Tumour suppressor protein p53/Mdm4 (Homo sapiens) (P04637 whole entry, looked up): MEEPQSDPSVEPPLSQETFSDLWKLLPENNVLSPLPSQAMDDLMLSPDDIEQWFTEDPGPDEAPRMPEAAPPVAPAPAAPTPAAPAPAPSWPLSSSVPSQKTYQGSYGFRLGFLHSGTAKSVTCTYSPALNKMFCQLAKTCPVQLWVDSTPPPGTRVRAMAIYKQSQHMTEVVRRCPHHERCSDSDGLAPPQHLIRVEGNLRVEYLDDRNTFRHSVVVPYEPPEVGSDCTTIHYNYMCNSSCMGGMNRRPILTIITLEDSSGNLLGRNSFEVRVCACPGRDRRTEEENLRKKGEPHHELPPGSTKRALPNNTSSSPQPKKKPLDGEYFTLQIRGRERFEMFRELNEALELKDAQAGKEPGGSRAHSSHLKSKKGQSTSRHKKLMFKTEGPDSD
Sequence of Tumour suppressor p53/oncoprotein Mdm2 (Homo sapiens) (P04637 whole entry, looked up): as above
Sequence of Tumour suppressor p53/oncoprotein Mdm2 (Homo sapiens) (Q00987 whole entry, looked up): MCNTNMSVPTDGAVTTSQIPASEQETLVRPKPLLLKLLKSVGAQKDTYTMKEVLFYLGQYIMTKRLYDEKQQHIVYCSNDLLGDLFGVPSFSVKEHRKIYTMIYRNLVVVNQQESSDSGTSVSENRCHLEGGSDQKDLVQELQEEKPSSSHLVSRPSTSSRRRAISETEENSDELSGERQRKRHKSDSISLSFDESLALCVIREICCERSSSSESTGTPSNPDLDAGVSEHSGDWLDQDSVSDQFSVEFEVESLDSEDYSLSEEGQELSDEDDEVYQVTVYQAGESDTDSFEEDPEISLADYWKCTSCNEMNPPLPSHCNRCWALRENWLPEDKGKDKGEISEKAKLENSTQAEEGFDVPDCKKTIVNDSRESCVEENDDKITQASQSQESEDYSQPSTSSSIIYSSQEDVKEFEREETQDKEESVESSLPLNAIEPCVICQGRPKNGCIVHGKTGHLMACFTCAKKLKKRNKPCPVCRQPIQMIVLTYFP
Sequence of Tumour suppressor protein p53/Mdm4 (P04637 whole entry): as the sequence (P04637 whole entry, looked up) above
Sequence of Tumour suppressor protein p53/Mdm4 (O15151 whole entry): as the sequence (O15151 whole entry, looked up) above

Compound	inhibition [1] [%]	inhibition [2] [%]	pIC50 [3]	pIC50 [4]
CC(C)[C@@H](CNC(N)=O)NC(=O)NC[C@H](C)NC(=O)NC[C@@H]1CSCCCCCCSC[C@H](NC(=O)[C@H](Cc2ccccc2)NC(=O)[C@H](CO)NC(=O)[C@@H](N)[C@@H](C)O)C(=O)N[C@@H](C)C(=O)N[C@@H](Cc2ccc(O)cc2)C(=O)N[C@@H](Cc2c[nH]c3ccccc23)C(=O)N1 (H-TSFCAYW; linker 4-C via X1)	-3	42	–	–
CC(C)[C@@H](CNC(N)=O)NC(=O)NC[C@H](C)NC(=O)NC[C@H](C)NC(=O)[C@H](Cc1c[nH]c2ccccc12)NC(=O)[C@H](Cc1ccc(O)cc1)NC(=O)[C@@H]1CSCCCCCSC[C@H](NC(=O)[C@@H](N)[C@@H](C)O)C(=O)N[C@@H](Cc2ccccc2)C(=O)N[C@@H](C)C(=O)N1 (H-TCFACYW-X3; linker 2-5 via X7)	12	30	–	–
CC(C)[C@@H](CNC(N)=O)NC(=O)NC[C@H](C)NC(=O)NC[C@H](C)NC(=O)[C@H](Cc1c[nH]c2ccccc12)NC(=O)[C@H](Cc1ccc(O)cc1)NC(=O)[C@@H]1CSSC[C@H](N)C(=O)N[C@@H](CO)C(=O)N[C@@H](Cc2ccccc2)C(=O)N[C@@H](C)C(=O)N1 (H-CSFACYW-X3; disulfide 1-5)	-4	20	–	–
C[C@@H](CNC(N)=O)NC(=O)NC[C@H](C)NC(=O)NC[C@@H]1CSC/C=C/CSC[C@H](NC(=O)[C@H](Cc2ccccc2)NC(=O)[C@H](CO)NC(=O)[C@@H](N)[C@@H](C)O)C(=O)N[C@@H](CCC(=O)O)C(=O)N[C@@H](Cc2ccc(O)cc2)C(=O)N[C@@H](Cc2c[nH]c3ccccc23)C(=O)N1 (H-TSFCEYW; linker 4-C via X8)	57	82	–	–
CC(C)[C@@H](CNC(N)=O)NC(=O)NC[C@H](C)NC(=O)NC[C@H](C)NC(=O)[C@H](Cc1c[nH]c2ccccc12)NC(=O)[C@H](Cc1ccc(O)cc1)NC(=O)[C@H](CCC(=O)O)NC(=O)[C@H](C)NC(=O)[C@H](Cc1ccccc1)NC(=O)[C@H](CO)NC(=O)[C@@H](NC(=O)[C@H](CCCNC(=N)N)NC(=O)[C@H](CCCNC(=N)N)NC(=O)[C@@H](N)CCCNC(=N)N)[C@@H](C)O (H-RRRTSFAEYW-X3)	81	95	–	–
CC(C)[C@@H](CNC(N)=O)NC(=O)NC[C@H](C)NC(=O)NC[C@H](C)NC(=O)[C@H](Cc1c[nH]c2ccccc12)NC(=O)[C@H](Cc1ccc(O)cc1)NC(=O)[C@@H]1CSCCCCCCSC[C@H](NC(=O)[C@@H](N)[C@@H](C)O)C(=O)N[C@@H](Cc2ccccc2)C(=O)N[C@@H](C)C(=O)N1 (H-TCFACYW-X3; linker 2-5 via X11)	14	36	–	–
CC(C)[C@@H](CNC(N)=O)NC(=O)NC[C@@H]1CSCCCCCCSC[C@H](N)C(=O)N[C@@H](CO)C(=O)N[C@@H](Cc2ccccc2)C(=O)N[C@@H](C)C(=O)N[C@@H](CCC(=O)O)C(=O)N[C@@H](Cc2ccc(O)cc2)C(=O)N[C@@H](Cc2c[nH]c3ccccc23)C(=O)N[C@@H](C)CNC(=O)N1 (H-CSFAEYW; linker 1-C via X6)	54	70	–	–
CC(C)[C@@H](CNC(N)=O)NC(=O)NC[C@H](C)NC(=O)NC[C@H](C)NC(=O)[C@H](Cc1c[nH]c2ccccc12)NC(=O)[C@H](Cc1ccc(O)cc1)NC(=O)[C@@H]1CSCCSC[C@H](N)C(=O)N[C@@H](CO)C(=O)N[C@@H](Cc2ccccc2)C(=O)N[C@@H](C)C(=O)N1 (H-CSFACYW-X3; linker 1-5 via CH2CH2)	39	47	–	–
CC(C)[C@@H](CNC(N)=O)NC(=O)NC[C@H](C)NC(=O)NC[C@@H]1CSCCCCCCSC[C@H](NC(=O)[C@H](Cc2ccccc2)NC(=O)[C@H](CO)NC(=O)[C@@H](N)[C@@H](C)O)C(=O)N[C@@H](CCC(N)=O)C(=O)N[C@@H](Cc2ccc(O)cc2)C(=O)N[C@@H](Cc2c[nH]c3ccccc23)C(=O)N1 (H-TSFCQYW; linker 4-C via X1)	36	85	–	–
CC(C)[C@@H](CNC(N)=O)NC(=O)NC[C@H](C)NC(=O)NC[C@H](C)NC(=O)[C@H](Cc1c[nH]c2ccccc12)NC(=O)[C@H](Cc1ccc(O)cc1)NC(=O)[C@@H]1CSCC(=O)NCCNC(=O)CSC[C@H](NC(=O)[C@@H](N)[C@@H](C)O)C(=O)N[C@@H](Cc2ccccc2)C(=O)N[C@@H](C)C(=O)N1 (H-TCFACYW-X3; linker 2-5 via CH2CONHCH2CH2NHCOCH2)	38	73	–	–
CC(C)[C@@H](CNC(N)=O)NC(=O)NC[C@H](C)NC(=O)NC[C@H](C)NC(=O)[C@H](Cc1c[nH]c2ccccc12)NC(=O)[C@H](Cc1ccc(O)cc1)NC(=O)[C@@H]1CSSC[C@H](NC(=O)[C@@H](N)[C@@H](C)O)C(=O)N[C@@H](Cc2ccccc2)C(=O)N[C@@H](C)C(=O)N1 (H-TCFACYW-X3; disulfide 2-5)	23	50	–	–
CC(C)[C@@H](CNC(N)=O)NC(=O)NC[C@H](C)NC(=O)NC[C@H](C)NC(=O)[C@H](Cc1c[nH]c2ccccc12)NC(=O)[C@H](Cc1ccc(O)cc1)NC(=O)[C@H](CCC(=O)O)NC(=O)[C@H](C)NC(=O)[C@H](Cc1ccccc1)NC(=O)[C@H](CO)NC(=O)[C@@H](N)CCCCN (H-KSFAEYW-X3)	85	98	–	–
CC(C)[C@@H](CNC(N)=O)NC(=O)NC[C@H](C)NC(=O)NC[C@@H]1CSCCCCCSC[C@H](NC(=O)[C@H](Cc2ccccc2)NC(=O)[C@H](CO)NC(=O)[C@@H](N)[C@@H](C)O)C(=O)N[C@@H](CCC(=O)O)C(=O)N[C@@H](Cc2ccc(O)cc2)C(=O)N[C@@H](Cc2c[nH]c3ccccc23)C(=O)N1 (H-TSFCEYW; linker 4-C via X13)	47	79	–	–
CC(=O)N[C@@H](CCCCN)C(=O)N[C@H](C(=O)N[C@@H](Cc1ccccc1)C(=O)N[C@@H](C)C(=O)N[C@@H](CCC(=O)O)C(=O)N[C@@H](Cc1ccc(O)cc1)C(=O)N[C@@H](Cc1c[nH]c2ccccc12)C(=O)N[C@@H](C)CNC(=O)N[C@@H](C)CNC(=O)N[C@H](CNC(N)=O)C(C)C)[C@@H](C)O (Ac-KTFAEYW-X3)	–	–	4.62	8.24
CC(C)[C@@H](CNC(N)=O)NC(=O)NC[C@H](C)NC(=O)NC[C@H](C)NC(=O)[C@H](Cc1c[nH]c2ccccc12)NC(=O)[C@H](Cc1ccc(O)cc1)NC(=O)[C@@H]1CSCC(=O)NCCNC(=O)CSC[C@H](N)C(=O)N[C@@H](CO)C(=O)N[C@@H](Cc2ccccc2)C(=O)N[C@@H](C)C(=O)N1 (H-CSFACYW-X3; linker 1-5 via CH2CONHCH2CH2NHCOCH2)	47	83	–	–
CC(C)[C@@H](CNC(N)=O)NC(=O)NC[C@H](C)NC(=O)NC[C@H](C)NC(=O)[C@H](Cc1c[nH]c2ccccc12)NC(=O)[C@H](Cc1ccc(O)cc1)NC(=O)[C@@H]1CSC/C=C/CSC[C@H](N)C(=O)N[C@@H](CO)C(=O)N[C@@H](Cc2ccccc2)C(=O)N[C@@H](C)C(=O)N1 (H-CSFACYW-X3; linker 1-5 via X14)	68	88	–	–
CC(C)[C@@H](CNC(N)=O)NC(=O)NC[C@H](C)NC(=O)NC[C@@H]1CSCc2ccc(cc2)CSC[C@H](NC(=O)[C@H](Cc2ccccc2)NC(=O)[C@H](CO)NC(=O)[C@@H](N)[C@@H](C)O)C(=O)N[C@@H](CCC(=O)O)C(=O)N[C@@H](Cc2ccc(O)cc2)C(=O)N[C@@H](Cc2c[nH]c3ccccc23)C(=O)N1 (H-TSFCEYW; linker 4-C via X12)	-4	21	–	–
CC(C)[C@@H](CNC(N)=O)NC(=O)NC[C@H](C)NC(=O)NC[C@H](C)NC(=O)[C@H](Cc1c[nH]c2ccccc12)NC(=O)[C@H](Cc1ccc(O)cc1)NC(=O)[C@@H]1CSCCCCCCSC[C@H](N)C(=O)N[C@@H](CO)C(=O)N[C@@H](Cc2ccccc2)C(=O)N[C@@H](C)C(=O)N1 (H-CSFACYW-X3; linker 1-5 via X11)	1	15	–	–
CC(C)[C@@H](CNC(N)=O)NC(=O)NC[C@@H]1CSCc2ccc(cc2)-c2ccc(cc2)CSC[C@H](N)C(=O)N[C@@H](CO)C(=O)N[C@@H](Cc2ccccc2)C(=O)N[C@@H](C)C(=O)N[C@@H](CCC(=O)O)C(=O)N[C@@H](Cc2ccc(O)cc2)C(=O)N[C@@H](Cc2c[nH]c3ccccc23)C(=O)N[C@@H](C)CNC(=O)N1 (H-CSFAEYW; linker 1-C via X9)	10	7	–	–
CC(C)[C@@H](CNC(N)=O)NC(=O)NC[C@@H]1CSCCCSC[C@H](NC(=O)[C@H](C)NC(=O)[C@H](Cc2ccccc2)NC(=O)[C@H](CO)NC(=O)[C@@H](N)[C@@H](C)O)C(=O)N[C@@H](Cc2ccc(O)cc2)C(=O)N[C@@H](Cc2c[nH]c3ccccc23)C(=O)N[C@@H](C)CNC(=O)N1 (H-TSFACYW; linker 5-C via X10)	4	15	–	–
CC(C)[C@@H](CNC(N)=O)NC(=O)NC[C@H](C)NC(=O)NC[C@@H]1CSCCCCCCSC[C@H](NC(=O)[C@H](Cc2ccccc2)NC(=O)[C@H](CO)NC(=O)[C@@H](N)[C@@H](C)O)C(=O)N[C@@H](CCCNC(=N)N)C(=O)N[C@@H](Cc2ccc(O)cc2)C(=O)N[C@@H](Cc2c[nH]c3ccccc23)C(=O)N1 (H-TSFCRYW; linker 4-C via X1)	2	42	–	–
CC(C)[C@@H](CNC(N)=O)NC(=O)NC[C@H](C)NC(=O)NC[C@H](C)NC(=O)[C@H](Cc1c[nH]c2ccccc12)NC(=O)[C@H](Cc1ccc(O)cc1)NC(=O)[C@@H]1CSCCCCCSC[C@H](N)C(=O)N[C@@H](CO)C(=O)N[C@@H](Cc2ccccc2)C(=O)N[C@@H](C)C(=O)N1 (H-CSFACYW-X3; linker 1-5 via X7)	16	58	–	–
CC(C)[C@@H](CNC(N)=O)NC(=O)NC[C@H](C)NC(=O)NC[C@H](C)NC(=O)[C@H](Cc1c[nH]c2ccccc12)NC(=O)[C@H](Cc1ccc(O)cc1)NC(=O)[C@@H]1CSCc2ccc(cc2)CSC[C@H](N)C(=O)N[C@@H](CO)C(=O)N[C@@H](Cc2ccccc2)C(=O)N[C@@H](C)C(=O)N1 (H-CSFACYW-X3; linker 1-5 via pXylylene)	14	37	–	–
